Test results as given in US9040566B2, “Adenosine A1 agonists for the treatment of glaucoma and ocular hypertension” (Bayer Intellectual Property GmbH, priority 2010, dated 2015).

What was measured:
cynomolgus monkeys = settings: literature (Kaufman et al.); cited from earlier work
rabbits = settings: literature (Crosson); cited from earlier work
[1] = test system: Female New Zealand rabbits; assay: IOP measurements in conscious rabbits; assay type: in vivo; settings: conscious rabbit, topical, 30 μl
Description: B-5. IOP Measurements in Conscious Rabbits
Female New Zealand rabbits with a body weight of about 4-5 kg were used to measure inner eye pressure (IOP). The compounds were dissolved/suspended in a solution of 10% transcutol, 10% solutol and 80% PBS, and given by topical administration at the eye in 30 μl volume. IOP was measured with a rebound tonometer (TonoVet) at different time points after application of the drugs. INO-8875 is a known adenosine A1 agonist having the structure shown below: […]

New Zealand rabbits = assay: Assessment of blood pressure in telemetric rabbits; assay type: in vivo; settings: conscious rabbit, topical, 30 μl
Description: B-6. Assessment of Blood Pressure and Heart Rate in Telemetric Rabbits Implantation of Telemetric Senders in Female New Zealand Rabbits:
New Zealand rabbits were used for implantation of the telemetric senders. Rabbits were pre-anaesthetized with Rompun® and Ketavet® i.m. at a dose of 5 mg/kg (in 0.25 ml/kg)+40 mg/kg (in 0.40 ml/kg) respectively. Anaesthesia was maintained with an i.v. infusion of Rompun® and Ketavet® (5-15 ml/h) with a solution of Rompun 2 ml (20 mg/1 ml)+Ketavet 4 ml (100 mg/ml) and 60 ml 0.9% aqueous solution of sodium chloride. Before surgery the hairs at the inner side of the back leg were completely removed and the skin were treated with local anaesthetic Xylocaln® Spray and disinfected with Braunol®. The rabbits were transferred to a sterile surgery unit and covered with sterile swabs and compressions. The skin was opened and the arteria femoralis was carefully dissected free and the pressure catheter of the telemetric implant C50 PXT® (DSI/Data Science International, St. Paul, Minn., U.S.A.) was inserted in the […] and forwarded abdominally under control of the pressure signal. The signal was detected with the RMC1-DSI® receiver plates and visualized with the PONEMAH® physiology platform software DSI/Data Science International, St. Paul, Minn., U.S.A.). After detection of a stable blood pressure signal the catheter was fixed with tissue-glue “Gewebepad” (DSI) and the two ECG electrodes were cut close to the transmitter. The transmitter was fixed under the skin of the rabbit. The wound was closed and finally treated with Nebacetin® Powder Spray. Post-operative analgesia was done with Metamizol i.m. 50 mg/kg in 0.1 ml/kg for 5 days after surgery. In addition a 5 day antibiotic therapy with Terramycin®/LA 20 mg/kg with 0.1 ml/kg was applied i.m. All rabbits recovered fully within one week of the surgery and were after 2 weeks adjustment to the measurement procedure used for the blood pressure detection.
Registration of MAP and HR in Conscious Female New Zealand Rabbits:
The rabbits with telemetric implants were housed for 5 hours in a transportation box which was placed on the RMC1-DSI® receiver plates. The signals were visualized, compiled and analyzed with the PONEMAH® physiology platform software. The systolic (SAP), diastolic (DAP) and mean arterial blood pressure (MAP) levels were registered in mmHg and the heart rate (HR) in beat/minutes was calculated from the interval between the systoles. Baseline levels for SAP, DAP and MAP as for HR were registered over a 2 hour equilibration period. The compounds were dissolved/suspended in a solution of 10% transcutol, 10% solutol and 80% PBS, and given by topical administration at the eye in 30 μl volume. Controls received the corresponding solvents. Baseline levels for SAP, DAP and MAP as for HR were registered over a 3 hour period after application.

Normotensive wistar rats = assay: Blood pressure measurement in telemetric rats (conscious, topical administration to the eye); assay type: in vivo; settings: conscious rat, 10 mg/ml
Text: B-2. Blood Pressure Measurement in Telemetric Rats
Normotensive wistar rats with a body weight of 300 to 350 g were used for this experimental study. Blood pressure was monitored in freely moving conscious animals by radiotelemetry. Briefly, the telemetric system (DSI Data Science International, MN, USA) is composed on 3 basic elements: implantable transmitters (TA11PA-C40), receivers (RA1010) and a computer-based acquisition software (Dataquest A.R.T 2.1 for Windows). Rats were instrumented with pressure implants for chronic use at least 14 days prior the experiments. Rats were anesthetized with isoflurane (2-3% in O2:N2O=1:2). During catheter implantation under anesthesia, rats were kept on a heating mat. A fluid-filled sensor catheter was inserted upstream into the exposed descending aorta between the iliac bifurcation and the renal arteries. According to the DSI guidelines the tip of the telemetric catheter was located just caudal to the renal arteries and secured by tissue adhesive. The transmitter body was affixed to the inner peritoneal wall before closure of abdomen. In a hardware configuration equipped for 24 animals, each rat cage was positioned on top of an individual receiver platform. After activation of the implanted transmitters, A.R.T., an on-line data acqusition system, samples data and converts telemetric pressure signals into mm Hg. The compounds were dissolved/suspended in an aqueous solution of sodium chloride (0.9%) and administered topically to the eye in 10 μl volume at a concentration of 10 mg/ml. Given are % deviations from the control run-in period of 2 hours before substance administration.

Wistar rats = assay: IOP measurements in rats (anesthetized, topical administration to the eye); assay type: in vivo; settings: rat, 10 mg/ml, 10 μl
Description: B-1. IOP Measurements in Rats
Wistar rats with a body weight of about 300 g were anesthetized with isoflurane (2-3% in O2:N2O=1:2). The compounds were dissolved/suspended in an aqueous solution of sodium chloride (0.9%) and administered topically to the eye in 10 μl volume at a concentration of 10 mg/ml. IOP was measured with a rebound tonometer (TonoLab) at different time points after application of the compounds. Ocular pressure and effects of hemodynamic parameters can be monitored in this model. N^6-Cyclopentyl-Adenosine (CPA) is a known adenosine A1 agonist having the structure shown below: […]

OC[C@H]1O[C@@H](n2cnc3c(NC4CCCCC4)ncnc32)[C@H](O)[C@@H]1O [CHA, N6-cyclohexyl-adenosine]
effect on intraocular pressure (cynomolgus monkeys): lower intraocular pressure | effect on intraocular pressure (rabbits): lower intraocular pressure

O=[N+]([O-])OC[C@H]1O[C@@H](n2cnc3c(NC4CCCC4)ncnc32)[C@H](O)[C@@H]1O [INO-8875]
IOP as percent of zero value ([1]; 1.0 mg/mL, time 0 min): 100.0% | IOP as percent of zero value ([1]; 1.0 mg/mL, time 30 min): 85.3% | IOP as percent of zero value ([1]; 1.0 mg/mL, time 60 min): 86.7% | IOP as percent of zero value ([1]; 1.0 mg/mL, time 90 min): 93.3% | IOP as percent of zero value ([1]; 1.0 mg/mL, time 120 min): 100% | IOP as percent of zero value ([1]; 3.0 mg/mL, time 0 min): 100.0% | IOP as percent of zero value ([1]; 3.0 mg/mL, time 30 min): 89.3% | IOP as percent of zero value ([1]; 3.0 mg/mL, time 60 min): 81.3% | IOP as percent of zero value ([1]; 3.0 mg/mL, time 90 min): 79.0% | IOP as percent of zero value ([1]; 3.0 mg/mL, time 120 min): 87.3% | IOP as percent of zero value ([1]; 10.0 mg/mL, time 0 min): 100.0% | IOP as percent of zero value ([1]; 10.0 mg/mL, time 30 min): 74.0% | IOP as percent of zero value ([1]; 10.0 mg/mL, time 60 min): 60.0% | IOP as percent of zero value ([1]; 10.0 mg/mL, time 90 min): 61.3% | IOP as percent of zero value ([1]; 10.0 mg/mL, time 120 min): 65.0% | mean arterial pressure (MAP) (New Zealand rabbits; 1.0 mg/mL, time 0 min): 123.9 mm Hg | mean arterial pressure (MAP) (New Zealand rabbits; 1.0 mg/mL, time 30 min): 111.3 mm Hg | mean arterial pressure (MAP) (New Zealand rabbits; 1.0 mg/mL, time 60 min): 110.9 mm Hg | mean arterial pressure (MAP) (New Zealand rabbits; 1.0 mg/mL, time 90 min): 112.6 mm Hg | mean arterial pressure (MAP) (New Zealand rabbits; 1.0 mg/mL, time 120 min): 106.0 mm Hg | mean arterial pressure (MAP) (New Zealand rabbits; 3.0 mg/mL, time 0 min): 118.5 mm Hg | mean arterial pressure (MAP) (New Zealand rabbits; 3.0 mg/mL, time 30 min): 101.8 mm Hg | mean arterial pressure (MAP) (New Zealand rabbits; 3.0 mg/mL, time 60 min): 104.9 mm Hg | mean arterial pressure (MAP) (New Zealand rabbits; 3.0 mg/mL, time 90 min): 105.7 mm Hg | mean arterial pressure (MAP) (New Zealand rabbits; 3.0 mg/mL, time 120 min): 109.0 mm Hg | mean arterial pressure (MAP) (New Zealand rabbits; 10.0 mg/mL, time 0 min): 114.5 mm Hg | mean arterial pressure (MAP) (New Zealand rabbits; 10.0 mg/mL, time 30 min): 89.5 mm Hg | mean arterial pressure (MAP) (New Zealand rabbits; 10.0 mg/mL, time 60 min): 86.9 mm Hg | mean arterial pressure (MAP) (New Zealand rabbits; 10.0 mg/mL, time 90 min): 90.3 mm Hg | mean arterial pressure (MAP) (New Zealand rabbits; 10.0 mg/mL, time 120 min): 90.0 mm Hg

C[C@H](Cc1ccccc1)Nc1ncnc2c1ncn2[C@@H]1O[C@H](CO)[C@@H](O)[C@H]1O [R-PIA, R(−)-N6-(2-phenylisopropyl)adenosine]
effect on intraocular pressure (cynomolgus monkeys): lower intraocular pressure | effect on intraocular pressure (rabbits): lower intraocular pressure

OC[C@H]1O[C@@H](n2cnc3c(NC4CCCC4)ncnc32)[C@H](O)[C@@H]1O [CPA, N^6-Cyclopentyl-Adenosine]
mean arterial pressure (MAP) as percent change of zero value (Normotensive wistar rats; time 0.25 h): −25.4% | mean arterial pressure (MAP) as percent change of zero value (Normotensive wistar rats; time 0.75 h): −71.3% | mean arterial pressure (MAP) as percent change of zero value (Normotensive wistar rats; time 1.25 h): −58.9% | mean arterial pressure (MAP) as percent change of zero value (Normotensive wistar rats; time 1.75 h): −42.6% | mean arterial pressure (MAP) as percent change of zero value (Normotensive wistar rats; time 2.25 h): −30.3% | mean arterial pressure (MAP) as percent change of zero value (Normotensive wistar rats; time 2.75 h): −17.6% | mean arterial pressure (MAP) as percent change of zero value (Normotensive wistar rats; time 3.25 h): −16.4% | mean arterial pressure (MAP) as percent change of zero value (Normotensive wistar rats; time 3.75 h): −9.0% | mean arterial pressure (MAP) as percent change of zero value (Normotensive wistar rats; time 4.25 h): −8.4% | mean arterial pressure (MAP) as percent change of zero value (Normotensive wistar rats; time 4.75 h): −5.3% | mean arterial pressure (MAP) as percent change of zero value (Normotensive wistar rats; time 5.25 h): −0.7% | mean arterial pressure (MAP) as percent change of zero value (Normotensive wistar rats; time 5.75 h): −2.9% | mean arterial pressure (MAP) as percent change of zero value (Normotensive wistar rats; time 6.25 h): −2.7% | mean arterial pressure (MAP) as percent change of zero value (Normotensive wistar rats; time −0.25 h): 0.0% | IOP as percent of zero value (Wistar rats; time 0 min): 100.0% | IOP as percent of zero value (Wistar rats; time 15 min): 65.0% | IOP as percent of zero value (Wistar rats; time 30 min): 58.5% | IOP as percent of zero value (Wistar rats; time 45 min): 46.3% | IOP as percent of zero value (Wistar rats; time 60 min): 42.5% | IOP as percent of zero value (Wistar rats; time 90 min): 44.8% | IOP as percent of zero value (Wistar rats; time 120 min): 59.0%
